Test results taken from patent US20180201592A1, “2-AMINO-1,3,4-THIADIAZINE AND 2-AMINO-1,3,4-OXADIAZINE BASED ANTIFUNGAL AGENTS” (F2G Limited, priority 2015, published 2018).

Legend:
Settings in all cases: banded MIC grade
C. albicans = experiment: Minimum inhibitory concentration, RPMI medium; type: cell-based
Procedure: (§1) The compound was dissolved in DMSO to give a solution containing 5 mg/mL. Tubes were stored at −20° C. until required. On the day of testing thawed solutions were vortex mixed to ensure homogeneity. 30 μL of solution was removed and added to 570 μL of sterile water in a separate sterile Eppendorf. The thoroughly mixed solution was used to prepare a series of doubling dilutions in water, in a deep well plate. Thirteen replicate plates were prepared using a Minitrak by aspirating 20 μL from each well into eleven clear polystyrene 96 well plates. Assays were also performed in RPMI medium (Roswell Park Memorial Media 1640). To perform MIC tests in this medium, dilutions of compounds are prepared in microtitre plates as described above. […] All plates were incubated for 24-48 hrs at 35° C. Growth was assessed by monitoring the optical density at 485 nm for each well. […] The following organisms were tested: […]

C. tropicalis = experiment: Minimum inhibitory concentration, RPMI medium; type: cell-based
Procedure: as §1

C. parapsilosis = experiment: Minimum inhibitory concentration, RPMI medium; type: cell-based
Procedure: as §1

A. fumigatus 210 = experiment: Minimum inhibitory concentration, YAG medium; type: cell-based, Aspergillus fumigatus
Procedure: (§2) Between 1 and 5 mgs of compound were accurately weighed out into a sterile Eppendorf tube. The compound was dissolved in DMSO to give a solution containing 5 mg/mL. Tubes were stored at −20° C. until required.
(§3) On the day of testing thawed solutions were vortex mixed to ensure homogeneity. 30 μL of solution was removed and added to 570 μL of sterile water in a separate sterile Eppendorf. The thoroughly mixed solution was used to prepare a series of doubling dilutions in water, in a deep well plate. Thirteen replicate plates were prepared using a Minitrak by aspirating 20 μL from each well into eleven clear polystyrene 96 well plates.
(§4) Spores of Aspergillus spp. (Aspergillus fumigatus [two strains], Aspergillus terreus [two strains], Aspergillus niger and Aspergillus flavus) were harvested from cultures grown on Sabarauds agar for 5 days, and resuspended in PBS/Tween 80 to approx 1×10^7 cfu/mL. Each organism suspension was diluted in YAG medium (1% glucose, 1% ammonium chloride and 0.5% yeast extract) to 0.5-2×10^4cfu/mL. 80 μL of an organism suspension was added to each well of the plate containing drug dilutions.
(§5) This typically produced MIC plates with a drug range 50-0.05 mg/L and organism inocula of 1-2×10^4 cfu/mL for Aspergillus spp. All plates were incubated for 24 hrs at 35° C. Growth was assessed by monitoring the optical density at 485 nm for each well. The MIC of a compound is the lowest drug concentration that inhibits growth of an organism by >70% compared with a drug free control. MICs are recorded as mg/L. In cases where the MIC of an organism is […] the MIC is repeated using a concentration range of 0.5-0.0005 mg/L.

A. terreus 49 = experiment: Minimum inhibitory concentration, YAG medium; type: cell-based, Aspergillus terreus
Procedure: (§6) The compound was dissolved in DMSO to give a solution containing 5 mg/mL. Tubes were stored at −20° C. until required. On the day of testing thawed solutions were vortex mixed to ensure homogeneity. 30 μL of solution was removed and added to 570 μL of sterile water in a separate sterile Eppendorf. The thoroughly mixed solution was used to prepare a series of doubling dilutions in water, in a deep well plate. Thirteen replicate plates were prepared using a Minitrak by aspirating 20 μL from each well into eleven clear polystyrene 96 well plates. Spores of Aspergillus spp. […] All plates were incubated for 24 hrs at 35° C. Growth was assessed by monitoring the optical density at 485 nm for each well. […] MICs are recorded as mg/L.

Aspergillus terreus = experiment: Minimum inhibitory concentration, YAG medium; type: cell-based
Procedure: as §6

Aspergillus niger = experiment: Minimum inhibitory concentration, YAG medium; type: cell-based
Procedure: as §6

Aspergillus flavus = experiment: Minimum inhibitory concentration, YAG medium; type: cell-based
Procedure: as §6

Aspergillus fumigatus = experiment: Minimum inhibitory concentration, YAG medium; type: cell-based
Procedure: as §2, §3, §4, §5

Row | SMILES | MIC grade, C. ALBICANS, RPMI media (C. albicans) | MIC grade, C. TROPICALIS, RPMI media (C. tropicalis) | MIC grade, C. PARAPSILOSIS, RPMI media (C. parapsilosis) | MIC grade, A. FUMIGATUS 210, YAG media (A. fumigatus 210) | MIC grade, A. TERREUS 49, YAG media (A. terreus 49) | MIC grade, A. TERREUS, YAG media (Aspergillus terreus) | MIC grade, A. NIGER, YAG media (Aspergillus niger) | MIC grade, A. FLAVUS, YAG media (Aspergillus flavus) | MIC grade, A. FUMIGATUS, YAG media (Aspergillus fumigatus)
1 | NC1=NN=C(CCCCCN2C(=O)c3ccccc3C2=O)CS1 | 1 (1: ≥20 mg/L) | 1 (1: ≥20 mg/L) | 3 (3: 1-5 mg/L) | 4 (4: <0.2 mg/L) | 4 (4: <0.2 mg/L) | 4 (4: <0.2 mg/L) | 4 (4: <0.2 mg/L) | 4 (4: <0.2 mg/L) | 4 (4: <0.2 mg/L)
2 | NC1=NN=C(CCCCc2cc3ccccc3o2)CS1 | 3 (3: 1-5 mg/L) | 3 (3: 1-5 mg/L) | 4 (4: <1 mg/L) | 3 (3: 0.2-1 mg/L) | 3 (3: 0.2-1 mg/L) | 4 (4: <0.2 mg/L) | 3 (3: 0.2-1 mg/L) | 4 (4: <0.2 mg/L) | 3 (3: 0.2-1 mg/L)
3 | NC1=NN=C(CCCCCc2ccccn2)CS1 | 2 (2: 5-20 mg/L) | 2 (2: 5-20 mg/L) | 3 (3: 1-5 mg/L) | 4 (4: <0.2 mg/L) | 4 (4: <0.2 mg/L) | 3 (3: 0.2-1 mg/L) | 4 (4: <0.2 mg/L) | 3 (3: 0.2-1 mg/L) | 3 (3: 0.2-1 mg/L)
4 | NC1=NN=C(CCCCCOc2ccc(F)cc2)CS1 | 4 (4: <1 mg/L) | 4 (4: <1 mg/L) | 4 (4: <1 mg/L) | 4 (4: <0.2 mg/L) | 4 (4: <0.2 mg/L) | 4 (4: <0.2 mg/L) | 4 (4: <0.2 mg/L) | 4 (4: <0.2 mg/L) | 4 (4: <0.2 mg/L)
5 | CN(CCCCCC1=NN=C(N)SC1)c1ccccc1 | 1 (1: ≥20 mg/L) | 1 (1: ≥20 mg/L) | 2 (2: 5-20 mg/L) | 2 (2: 1-5 mg/L) | 3 (3: 0.2-1 mg/L) | 3 (3: 0.2-1 mg/L) | 3 (3: 0.2-1 mg/L) | 3 (3: 0.2-1 mg/L) | 2 (2: 1-5 mg/L)
6 | NC1=NN=C(CCCCCOCc2ccccc2)CS1 | 3 (3: 1-5 mg/L) | 3 (3: 1-5 mg/L) | 4 (4: <1 mg/L) | 4 (4: <0.2 mg/L) | 4 (4: <0.2 mg/L) | 3 (3: 0.2-1 mg/L) | 3 (3: 0.2-1 mg/L) | 4 (4: <0.2 mg/L) | 4 (4: <0.2 mg/L)
7 | COCCCCCC1=CSC(=N)NN1C | 4 (4: <1 mg/L) | 3 (3: 1-5 mg/L) | 4 (4: <1 mg/L) | 4 (4: <0.2 mg/L) | 4 (4: <0.2 mg/L) | 3 (3: 0.2-1 mg/L) | 3 (3: 0.2-1 mg/L) | 4 (4: <0.2 mg/L) | 3 (3: 0.2-1 mg/L)
8 | COCCCCCCC1=NN=C(N)SC1 | 4 (4: <1 mg/L) | 3 (3: 1-5 mg/L) | 4 (4: <1 mg/L) | 4 (4: <0.2 mg/L) | 4 (4: <0.2 mg/L) | 4 (4: <0.2 mg/L) | 4 (4: <0.2 mg/L) | 4 (4: <0.2 mg/L) | 4 (4: <0.2 mg/L)
9 | COCCCCCCCC1=NN=C(N)SC1 | 4 (4: <1 mg/L) | 4 (4: <1 mg/L) | 4 (4: <1 mg/L) | 4 (4: <0.2 mg/L) | 4 (4: <0.2 mg/L) | 4 (4: <0.2 mg/L) | 4 (4: <0.2 mg/L) | 4 (4: <0.2 mg/L) | 4 (4: <0.2 mg/L)
10 | NC1=NN=C(CCCCCCCOc2ccccc2)CS1 | 3 (3: 1-5 mg/L) | 3 (3: 1-5 mg/L) | 4 (4: <1 mg/L) | 3 (3: 0.2-1 mg/L) | 4 (4: <0.2 mg/L) | 4 (4: <0.2 mg/L) | 4 (4: <0.2 mg/L) | 4 (4: <0.2 mg/L) | 4 (4: <0.2 mg/L)
11 | CCCCC/C=C/C1=NN=C(N)SC1 | 2 (2: 5-20 mg/L) | 1 (1: ≥20 mg/L) | 2 (2: 5-20 mg/L) | 2 (2: 1-5 mg/L) | 2 (2: 1-5 mg/L) | 2 (2: 1-5 mg/L) | 2 (2: 1-5 mg/L) | 2 (2: 1-5 mg/L) | 2 (2: 1-5 mg/L)
12 | CCCCOCCC1=CNN=C(N)S1 | 1 (1: ≥20 mg/L) | 1 (1: ≥20 mg/L) | 1 (1: ≥20 mg/L) | 2 (2: 1-5 mg/L) | 2 (2: 1-5 mg/L) | 2 (2: 1-5 mg/L) | 1 (1: ≥5 mg/L) | 2 (2: 1-5 mg/L) | 2 (2: 1-5 mg/L)
13 | CC(C)OC(=O)CC1=NN=C(N)SC1 | 1 (1: ≥20 mg/L) | 1 (1: ≥20 mg/L) | 2 (2: 5-20 mg/L) | – | – | – | – | – | –
